Measurements as given in article PMC8095338 (Neuro-oncology Advances, 2021).
“And” between values parts separate entries of the source, which are not always exact repeats. Identical values can stand only once. Like-named read-outs stand apart in the source and are kept apart here.

Key:
[1] = Plasma PK study in WT and NF1 minipigs (LC-MS/MS, noncompartmental); type: in vivo, minipig; conditions: for AUC: read-out: AUC0?∞
Protocol: Plasma isolation was performed as described in a previous study.[13] […] Tissues were harvested and immediately transferred to cryovials and stored at −80°C until analysis.
Standard curves and controls were generated using corresponding untreated tissue. Skin tissue was treated with collagenase, and all organ tissues were homogenized. Liquid extraction with ethyl acetate was then performed, followed by analysis. […] The chromatographic separation was performed as described.[13] Mass spectrometric detection was performed using multiple reaction monitoring in positive ionization mode. […] Ion source gases 1 and 2 were set at 50 and 50 psi, respectively; the curtain gas was at 20 psi and the collision gas at 4 psi. […] Data acquisition was performed with analyst 1.4.1 software (MDS-SCIEX).
The PK parameters included AUC–time curve from time 0 to ∞ (linear up, log down), Cmax, Tmax, and T1/2.

[2] = cited from earlier work
[3] = system: ERK phosphorylation (p-ERK); test: Tissue PD: p-ERK/ERK by capillary western (Wes); type: in vivo, minipig; conditions: for inhibition at 7.3 mg/kg: Sus scrofa, po; for p-ERK Inhibition: ND = Not detected
Protocol: WT (n = 8) and NF1 (n = 8) minipigs received a single human equivalent oral dose of 450 mg (7.3 mg/kg). Untreated WT (n = 4) and NF1 (n = 4) minipigs were also enrolled as controls. All animals were euthanized 2 h after drug administration. Tissue samples were collected from each animal at the same approximate locations and divided for analysis.
(§1) PD analysis in blood was performed as described in a previous study, with some modifications.[13] […] Samples were stimulated with phorbol 12-myristate 13-acetate (PMA) (200 nM) or phosphate-buffered saline for 10 min at 37°C within 1 h of being drawn. Red blood cells were removed using standard ammonium-chloride-potassium (ACK) lysis. Peripheral blood mononuclear cells (PBMCs) were snap-frozen as dry pellets and stored at −80°C until analysis. Protein lysates from PBMCs were prepared as described in a previous study.[13] For tissues, protein lysates were prepared by transferring ~[…] of snap frozen tissue to a 1.7-mL microfuge tube containing radioimmunoprecipitation lysis buffer with protease and phosphatase inhibitors. The samples were then homogenized using a rotor-stator homogenizer for 2–4 cycles of 20 s and centrifuged for 10 min at 4°C. Concentrations were measured using the Pierce BCA Protein assay kit (Thermo #23227), according to the manufacturer’s instructions. A capillary western blot assay was performed on a Wes system (ProteinSimple 004–600) according to the manufacturer’s instructions using a 12–230 kDa Separation Module (ProteinSimple SM-W004) and Anti-Rabbit Detection Module (ProteinSimple DM-001). Lysates were loaded at 1 mg/mL and instrument default settings were used. Primary antibodies against Phospho-p44/42 ERK1/2 (p-ERK) (Cell Signaling Technologies #4370S) and p44/42 ERK1/2 (ERK) (Cell Signaling Technologies #4695S) were used at 1:100 dilution. Peaks of the appropriate molecular weight (42/44 kilodaltons) were detected in the resulting electropherograms and chemiluminescent signal was quantified by calculating the area under the peaks. The relative intensity of p-ERK to total ERK was then calculated as a ratio (p-ERK/ERK). To discriminate low p-ERK signals from background, the peak signal-to-noise (S/N) ratio given by the software was ≥10, and the peak height/baseline ratio was ≥3.[27]

[4] = system: ERK phosphorylation (p-ERK) in PBMCs; test: Blood PD: p-ERK in ex vivo PMA-stimulated PBMCs (capillary western); set-up: species or system minipig; conditions: Sus scrofa, PBMC, all minipigs (WT and NF1), 2 to 5 h after single oral 7.3 mg/kg
Protocol: WT (n = 8) and NF1 (n = 8) minipigs received a single human equivalent oral dose of 450 mg (7.3 mg/kg).
as §1, with “A capillary western blot assay was performed on a Wes system (ProteinSimple 004–600) according to the manufacturer’s instructions using a 12–230 kDa Separation Module (ProteinSimple SM-W004) and Anti-Rabbit Detection Module (ProteinSimple DM-001). Lysates were loaded at 1 mg/mL and instrument default settings were used. Primary antibodies against Phospho-p44/42 ERK1/2 (p-ERK) (Cell Signaling Technologies #4370S) and p44/42 ERK1/2 (ERK) (Cell Signaling Technologies #4695S) were used at 1:100 dilution.” left out, “To discriminate low p-ERK signals from background, the peak signal-to-noise (S/N) ratio given by the software was ≥10, and the peak height/baseline ratio was ≥3.[27]” left out

[5] = female, minipig, po, 7.3 mg/kg, individual NF1 F minipigs, single oral 7.3 mg/kg
[6] = female, minipig, po, 7.3 mg/kg, individual WT F minipigs, single oral 7.3 mg/kg
[7] = individual NF1 F minipigs, single oral 7.3 mg/kg, 7.3 mg/kg
[8] = individual NF1 M minipigs, single oral 7.3 mg/kg, 7.3 mg/kg
[9] = individual WT F minipigs, single oral 7.3 mg/kg, 7.3 mg/kg
[10] = individual WT M minipigs, single oral 7.3 mg/kg, 7.3 mg/kg
[11] = minipig, po, 7.3 mg/kg, all 16 minipigs (WT and NF1), median (range), single oral 7.3 mg/kg
[12] = minipig, po, 7.4 mg/kg, NF1 minipigs, 7.4 mg/kg single oral dose, median (range)
[13] = minipig, po, 7.4 mg/kg, WT minipigs, 7.4 mg/kg single oral dose, median (range)
[14] = pediatric patients, 25 mg/m^2, plasma, median (range), ref 6
[15] = pediatric patients, 25 mg/m^2, plasma, median (range), ref 7

For `Cn1cnc2c(F)c(Nc3ccc(Br)cc3Cl)c(C(=O)NOCCO)cc21` [selumetinib], the Clast ([1]; all 16 minipigs (WT and NF1), median (range), single oral 7.3 mg/kg) was 22.7 ng/mL, the k el ([1]; female, minipig, individual WT F minipigs, single oral 7.3 mg/kg) was 2.78e-05 s⁻¹ and the half-life [1, 5] was 7.5 h. It also gave an AUC [1, 5] of 3560 ng·h/mL, a Cmax ([1]; female, minipig, po, 7.3 mg/kg, individual NF1 F minipigs, single oral 7.3 mg/kg, read-out: Cmax) of 812 ng/mL and a half-life [1, 6] of 7.1 h. The AUC [1, 6] was 3680 ng·h/mL, the Cmax ([1]; female, minipig, po, 7.3 mg/kg, individual WT F minipigs, single oral 7.3 mg/kg, read-out: Cmax) was 636 ng/mL and the Kel ([1]; individual NF1 F minipigs, single oral 7.3 mg/kg) was 0.1 h⁻¹. For the same molecule, the “AUC0?∞” value [1, 7] was 5896 ng·h/mL and 5255 ng·h/mL and 4287 ng·h/mL, the Cmax [1, 7] was 678 ng/mL and 633 ng/mL and 571 ng/mL and the T1/2 [1, 7] was 7.6 h and 8.0 h and 8.2 h. For the same molecule, the Tmax [1, 7] was 2.0 h and 0.5 h, the “AUC0?∞” value [1, 8] was 4116 ng·h/mL and 6092 ng·h/mL and 4344 ng·h/mL and the Cmax [1, 8] was 1480 ng/mL and 294 ng/mL and 766 ng/mL and 547 ng/mL. The T1/2 [1, 8] was 7.3 h and 14.7 h and 10.6 h and 6.1 h, the Tmax [1, 8] was 2.0 h and the “AUC0?∞” value [1, 9] was 5722 ng·h/mL and 5468 ng·h/mL and 5843 ng·h/mL. For the same molecule, the Cmax [1, 9] was 573 ng/mL and 1040 ng/mL and 1020 ng/mL, the T1/2 [1, 9] was 10.1 h and 6.7 h and 7.8 h and the Tmax [1, 9] was 2.0 h and 0.5 h. The Kel ([1]; individual WT M minipigs, single oral 7.3 mg/kg) was 0.1 h⁻¹, the “AUC0?∞” value [1, 10] was 3558 ng·h/mL and 9926 ng·h/mL and 5995 ng·h/mL and 5040 ng·h/mL and the Cmax [1, 10] was 266 ng/mL and 621 ng/mL and 861 ng/mL and 1270 ng/mL. For the same molecule, the T1/2 [1, 10] was 6.7 h and 10.6 h and 11.8 h, the Tmax [1, 10] was 5 h and 0.5 h and 2.1 h and the k el ([1]; male, minipig, individual NF1 M minipigs, single oral 7.3 mg/kg) was 2.78e-05 s⁻¹. For the same molecule, the AUC ([1]; male, minipig, po, 7.3 mg/kg, individual NF1 M minipigs, single oral 7.3 mg/kg) was 7930 ng·h/mL, the Tmax ([1]; male, minipig, po, 7.3 mg/kg, individual NF1 M minipigs, single oral 7.3 mg/kg, read-out: Tmax) was 1.1 h and the half-life ([1]; male, minipig, po, 7.3 mg/kg, individual WT M minipigs, single oral 7.3 mg/kg) was 12.3 h. For the same molecule, the k el ([1]; minipig, all 16 minipigs (WT and NF1), median (range), single oral 7.3 mg/kg) was 2.78e-05 s⁻¹, the AUC(0-inf) [1, 11] was 5360 ng·h/mL and the half-life [1, 11] was 7.9 h. For the same molecule, the Cmax ([1]; minipig, po, 7.3 mg/kg, all 16 minipigs (WT and NF1), median (range), single oral 7.3 mg/kg, read-out: Cmax) was 657 ng/mL, the Tmax ([1]; minipig, po, 7.3 mg/kg, all 16 minipigs (WT and NF1), median (range), single oral 7.3 mg/kg, read-out: Tmax) was about 1 h and the AUC(0-inf) [1, 12] was 4800 ng·h/mL. The half-life [1, 12] was 7.8 h, the Cmax ([1]; minipig, po, 7.4 mg/kg, NF1 minipigs, 7.4 mg/kg single oral dose, median (range), read-out: Cmax) was 656 ng/mL and the Tmax ([1]; minipig, po, 7.4 mg/kg, NF1 minipigs, 7.4 mg/kg single oral dose, median (range), read-out: Tmax) was 1.1 h. The AUC(0-inf) [1, 13] was 5600 ng·h/mL, the half-life [1, 13] was 9 h and the Cmax ([1]; minipig, po, 7.4 mg/kg, WT minipigs, 7.4 mg/kg single oral dose, median (range), read-out: Cmax) was 749 ng/mL. The “AUC0→∞” value ([2]; human, in vivo, 75 mg) was 4510 (19.2) hour × ng/mL, the “AUC0-∞ (systemic exposure)” value ([2]; human, in vivo) was 4510 to 6335 ng·h/mL and the “AUC0-∞ (systemic exposure)” value ([2]; pediatric NF1 patients) was 2520 to 3855 ng·h/mL. For the same molecule, the “median maximum concentration (Cmax) in plasma” value ([2]; pediatric dose 25 mg/m^2) was 886 ng/mL, the “AUC0→∞” value [2, 14] was 2520 (2341–3280) hour × ng/mL and the Cmax [2, 14] was 886 (790–1200) ng/mL. For the same molecule, the T1/2 [2, 14] was 6.5 (4.7–15.8) hours, the “AUC0→∞” value [2, 15] was 3855 (1780–7250) hour × ng/mL and the Cmax [2, 15] was 1400 (306–3570) ng/mL. The Tmax [2, 15] was 1.4 (1.0–4.0) hours, the inhibition at 7.3 mg/kg ([3]; 2 h, NF1 minipigs, cerebral cortex, 2 h after single oral 7.3 mg/kg, vs untreated controls, change not significant, read-out: p-ERK Inhibition) was 71% and the inhibition at 7.3 mg/kg ([3]; 2 h, NF1 minipigs, optic nerve, 2 h after single oral 7.3 mg/kg, vs untreated controls, read-out: p-ERK Inhibition) was 60%. For the same molecule, the inhibition at 7.3 mg/kg ([3]; 2 h, NF1 minipigs, sciatic nerve, 2 h after single oral 7.3 mg/kg, vs untreated controls, read-out: p-ERK Inhibition) was 60%, the inhibition at 7.3 mg/kg ([3]; 2 h, WT minipigs, sciatic nerve, 2 h after single oral 7.3 mg/kg, vs untreated controls, read-out: p-ERK Inhibition) was 67% and the inhibition at 7.3 mg/kg ([3]; 2 h, all minipigs (WT and NF1), 2 h after single oral 7.3 mg/kg, read-out: mean inhibition of p-ERK in sciatic nerve) was 64%. For the same molecule, the inhibition at 7.3 mg/kg ([3]; 2 h, all minipigs (WT and NF1), 2 h after single oral 7.3 mg/kg, read-out: mean inhibition of p-ERK in skin) was 95%, the “p-ERK Inhibition” value ([3]; WT minipigs, cerebral cortex (subcortical white matter), 2 h after single oral 7.3 mg/kg, vs untreated controls) was “not observed” and the “p-ERK Inhibition” value ([3]; WT minipigs, optic nerve, 2 h after single oral 7.3 mg/kg, vs untreated controls) was “not observed”. The “mean inhibition of p-ERK in skin” value ([3]; all minipigs (WT and NF1), 2 h after single oral 7.3 mg/kg, 7.3 mg/kg) was 94%, the “p-ERK level in skin after selumetinib” value ([3]; all minipigs, single oral 7.3 mg/kg, 2 h, compared to untreated minipigs) was “nearly undetectable levels” and the inhibition at 7.3 mg/kg ([4]; read-out: maximal inhibition of p-ERK in PBMCs) was at most 90%. The inhibition at 7.3 mg/kg ([4]; read-out: mean inhibition of p-ERK in PBMCs) was 60%.
